Paper PMC12775434, “Ultra-large virtual screening unveils potent agonists of the neuromodulatory orphan receptor GPR139” (Nature Communications, 2025)
Values joined by “and” are separate entries in the source; they are usually repeats but may differ in a detail not shown here. Equal entries are not always repeated. Where two headings read alike, the source gives them in different places.

Columns and labels:
Assay type in all cases: cell-based
[1] = molecular target: T1, GPR139 (Homo sapiens, UniProt Q6DWJ6); assay: Ca2+ mobilization assay, agonist mode, stable GPR139-CHOk1 cell line; settings: for Emax: normalized to Lundbeck Cmp 1a, read-out: Emax (%) Ca2+
T1 sequence (Q6DWJ6 1-353): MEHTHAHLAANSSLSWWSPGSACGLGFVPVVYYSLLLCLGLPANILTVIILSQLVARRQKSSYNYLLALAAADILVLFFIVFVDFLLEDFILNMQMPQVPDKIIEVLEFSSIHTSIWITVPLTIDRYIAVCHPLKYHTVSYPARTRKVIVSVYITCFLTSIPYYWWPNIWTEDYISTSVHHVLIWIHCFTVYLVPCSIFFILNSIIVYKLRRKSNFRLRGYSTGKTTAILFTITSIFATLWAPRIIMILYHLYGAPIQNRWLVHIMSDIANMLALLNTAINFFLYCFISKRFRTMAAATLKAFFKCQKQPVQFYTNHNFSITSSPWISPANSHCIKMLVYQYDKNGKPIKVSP
Method in brief: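 Agonist activity of compounds is assessed in stably transfected CHO-K1 cells using the calcium dye Fluo-4 at 37 °C in HEPES-buffered HBSS (pH 7.4). Efficacy is expressed relative to the reference agonist Lundbeck Cmp 1a, set as 100%.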

[2] = molecular target: T1, GPR139; assay: Ca2+ mobilization assay, antagonist mode (EC80 800 nM Lundbeck Cmp 1a after 20 min preincubation), GPR139-CHOk1
Method in brief: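 Fluo-4-loaded GPR139-CHOk1 cells in HEPES-buffered HBSS (pH 7.4, 2.5 mM probenecid) given test compounds at 10 µM, then after 20 min challenged with 800 nM Lundbeck Cmp 1a (EC80). Calcium fluorescence read at 37 °C, 485/525 nm.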

[3] = molecular target: T2, human muscarinic acetylcholine M1 receptor (M1R) (Homo sapiens, UniProt P11229); assay: Ca2+ mobilization counter-screen in M1R-CHOk1 cells; settings: individual replicates (Supplementary Figure 5)
T2 sequence (P11229 1-460): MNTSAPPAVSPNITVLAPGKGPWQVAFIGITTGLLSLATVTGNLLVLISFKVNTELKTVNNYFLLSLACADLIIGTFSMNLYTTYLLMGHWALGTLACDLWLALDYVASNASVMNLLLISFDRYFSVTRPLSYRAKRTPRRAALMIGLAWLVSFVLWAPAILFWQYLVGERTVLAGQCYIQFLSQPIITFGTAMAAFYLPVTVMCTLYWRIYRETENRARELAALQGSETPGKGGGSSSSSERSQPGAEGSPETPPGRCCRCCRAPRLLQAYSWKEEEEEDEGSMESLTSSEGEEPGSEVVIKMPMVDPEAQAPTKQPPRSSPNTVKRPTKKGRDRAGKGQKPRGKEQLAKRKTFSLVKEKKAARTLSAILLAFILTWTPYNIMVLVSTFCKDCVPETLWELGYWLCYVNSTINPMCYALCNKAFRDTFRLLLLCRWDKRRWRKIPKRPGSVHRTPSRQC
Description: Primary screening and pharmacological characterization of compounds were performed using a CHO-K1 cell line that stably expresses human GPR139 (GPR139-CHOk1). The GPR139-CHOk1 cell line was kindly provided by H. Lundbeck A/S, Denmark[24]. GPR139-CHOk1 cells were grown in Ham’s F-12 Kaighn’s Modification Medium (ThermoFisher #21127030) supplemented with 10% dialyzed fetal bovine serum (US origin, ThermoFisher #26400044), 100 units/mL Penicillin-Streptomycin (ThermoFisher #15140122), and 1 mg/mL Geneticin (ThermoFisher #11811031). […] M1R-CHOk1 cells were purchased from The Missouri S&T cDNA Resource Center (#CEM100TN00). M1R-CHOk1 cells were grown in Ham’s F12 Medium (ThermoFisher #21765029) supplemented with 10% fetal bovine serum (Brazilian origin, ThermoFisher #10270106), 100 units/mL Penicillin-Streptomycin, and 0.25 mg/mL Geneticin. HEK293A cells transiently transfected with GPR139 were used for additional pharmacological assessment of signaling pathways activated by GPR139. HEK239A cells were generously provided by Dr. Asuka Inoue, Tohoku University, Japan. HEK293A cells were grown in Dulbecco’s Modified Eagle Medium (ThermoFisher #31966047) supplemented with 10% dialyzed fetal bovine serum and 100 units/mL Penicillin-Streptomycin. Cell lines were maintained at 37 °C in humidified incubator equilibrated with 5% CO2.
30,000 GPR139- or M1R-CHOk1 cells/well were seeded in black clear bottom tissue culture treated 96-well plates (Greiner #655090) and grown for 20–24 h. Cells were washed with HEPES buffer (Hank’s Balanced Salt Solution (HBBS) supplemented with 20 mM HEPES, 1 mM MgCl2, and 1 mM CaCl2; pH 7.4). Cells were loaded with 50 µL of 2 µM Fluo-4 AM dye (ThermoFisher #F14202) in HEPES buffer supplemented with 2.5 mM probenecid and 0.01% Pluronic F-68 (ThermoFisher #24040032) for 1 h at 37 °C. Cells were washed with HEPES buffer. 50 µL HEPES buffer supplemented with 2.5 mM probenecid was added, and the cells were incubated for 10 min at 37 °C before measurement. 50 µL test compounds diluted in HEPES buffer from DMSO stocks (final DMSO concentration of maximally 0.3%) were added automatically after baseline measurements. The intracellular calcium mobilization was measured on a FlexStation 3 Multimode Microplate Reader (Molecular Devices) at 37 °C with filters for excitation of 485 nm and emission of 525 nm.

[4] = Agonist mode, individual replicates (Supplementary Figure 4)
[5] = Supplementary Table 2, mean ± SEM
[6] = log [Compound] M = -4.5, individual replicate columns
[7] = log [Compound] M = -5.0, individual replicate columns
[8] = log [Compound] M = -5.5, individual replicate columns
[9] = log [Compound] M = -6.0, individual replicate columns
[10] = log [Compound] M = -6.5, individual replicate columns
[11] = log [Compound] M = -7.0, individual replicate columns
[12] = log [Compound] M = -7.5, individual replicate columns
[13] = log [Compound] M = -8.0, individual replicate columns
[14] = log [Compound] M = -8.5, individual replicate columns
[15] = log [Compound] M = -9.0, individual replicate columns
[16] = individual replicates (Supplementary Figure 4)
[17] = Supplementary Table 2, mean ± SEM, read-out: pEC50 Ca2+ (converted)

| Compound | Ca2+ signal (% of Cmp 1a) [1, 4] | EC50 ([1]; GPR139-CHOk1, read-out: EC50, Ca2+ mobilization) [nM] | Emax [1, 5] [%] | Ca2+ signal (% of Cmp 1a) [1, 6] | Ca2+ signal (% of Cmp 1a) [1, 7] | Ca2+ signal (% of Cmp 1a) [1, 8] | Ca2+ signal (% of Cmp 1a) [1, 9] | Ca2+ signal (% of Cmp 1a) [1, 10] | Ca2+ signal (% of Cmp 1a) [1, 11] | Ca2+ signal (% of Cmp 1a) [1, 12] | Ca2+ signal (% of Cmp 1a) [1, 13] | Ca2+ signal (% of Cmp 1a) [1, 14] | Ca2+ signal (% of Cmp 1a) [1, 15] | Ca2+ signal (% of Cmp 1a) [2, 16] | Ca2+ signal (% of Carbachol) [3] | EC50 [1, 17] [nM] | Ca2+ signal (% of Cmp 1a) ([1]; Agonist mode, individual replicates (Supplementary Figure 1)) | Ca2+ signal (% of Cmp 1a) ([2]; individual replicates (Supplementary Figure 1)) |
| --- | --- | --- | --- | --- | --- | --- | --- | --- | --- | --- | --- | --- | --- | --- | --- | --- | --- | --- |
| Cc1cccc(-c2nc(CC(=O)NC(C)c3ccccc3)no2)c1 (centres unmarked) [Compound 1.3, CC(C1=CC=CC=C1)NC(CC2=NOC(C3=CC(C)=CC=C3)=N2)=O] | 106 % of Cmp 1a and 102 % of Cmp 1a and 119 % of Cmp 1a | 100 | 109 ± 6 | 95 % of Cmp 1a and 109 % of Cmp 1a and 110 % of Cmp 1a and 97 % of Cmp 1a | 91 % of Cmp 1a (2×) and 123 % of Cmp 1a and 104 % of Cmp 1a | 80 % of Cmp 1a and 126 % of Cmp 1a and 100 % of Cmp 1a and 85 % of Cmp 1a | 76 % of Cmp 1a and 101 % of Cmp 1a and 90 % of Cmp 1a and 71 % of Cmp 1a | 55 % of Cmp 1a and 89 % of Cmp 1a and 72 % of Cmp 1a and 60 % of Cmp 1a | 36 % of Cmp 1a and 68 % of Cmp 1a and 56 % of Cmp 1a and 52 % of Cmp 1a | 12 % of Cmp 1a and 48 % of Cmp 1a (2×) and 34 % of Cmp 1a | 5.33 % of Cmp 1a and 18 % of Cmp 1a and 26 % of Cmp 1a and 21 % of Cmp 1a | 5 % of Cmp 1a and 3.67 % of Cmp 1a and 12 % of Cmp 1a and 9 % of Cmp 1a | -3 % of Cmp 1a and 12 % of Cmp 1a and 5.67 % of Cmp 1a and 8 % of Cmp 1a | 13 % of Cmp 1a and 0.333 % of Cmp 1a and -11 % of Cmp 1a | 24 % of Carbachol and -2 % of Carbachol and 12 % of Carbachol |  |  |  |
| Cc1cc(-c2nc(CC(=O)NC(C)c3ccccc3)no2)cs1 (centres unmarked) [Compound 1.4, CC(C1=CC=CC=C1)NC(CC2=NOC(C3=CSC(C)=C3)=N2)=O] | 100 % of Cmp 1a and 61 % of Cmp 1a and 92 % of Cmp 1a |  | 114 ± 6 | 106 % of Cmp 1a and 107 % of Cmp 1a and 115 % of Cmp 1a and 110 % of Cmp 1a | 109 % of Cmp 1a and 91 % of Cmp 1a and 131 % of Cmp 1a and 113 % of Cmp 1a | 103 % of Cmp 1a and 82 % of Cmp 1a and 119 % of Cmp 1a and 123 % of Cmp 1a | 107 % of Cmp 1a and 79 % of Cmp 1a and 97 % of Cmp 1a and 127 % of Cmp 1a | 81 % of Cmp 1a and 66 % of Cmp 1a and 80 % of Cmp 1a and 103 % of Cmp 1a | 48 % of Cmp 1a and 47 % of Cmp 1a and 54 % of Cmp 1a and 90 % of Cmp 1a | 24 % of Cmp 1a and 22 % of Cmp 1a and 35 % of Cmp 1a and 47 % of Cmp 1a | 5.33 % of Cmp 1a and 2.67 % of Cmp 1a and 18 % of Cmp 1a and 26 % of Cmp 1a | 2.67 % of Cmp 1a (2×) and 7 % of Cmp 1a (2×) | 6 % of Cmp 1a and 1.67 % of Cmp 1a and 13 % of Cmp 1a and 4.33 % of Cmp 1a | -0.333 % of Cmp 1a and -4 % of Cmp 1a and -17 % of Cmp 1a | -1 % of Carbachol and 20 % of Carbachol and -5 % of Carbachol | 100 |  |  |
| Cc1ccc(-c2nc(CC(=O)NC(C)c3ccccc3)no2)o1 (centres unmarked) [Compound 1.6, CC(C1=CC=CC=C1)NC(CC2=NOC(C3=CC=C(O3)C)=N2)=O] | 102 % of Cmp 1a and 114 % of Cmp 1a and 83 % of Cmp 1a |  | 112 ± 10 | 98 % of Cmp 1a and 103 % of Cmp 1a and 120 % of Cmp 1a | 89 % of Cmp 1a and 114 % of Cmp 1a and 105 % of Cmp 1a | 87 % of Cmp 1a and 107 % of Cmp 1a and 97 % of Cmp 1a | 70 % of Cmp 1a and 96 % of Cmp 1a and 81 % of Cmp 1a | 48 % of Cmp 1a and 70 % of Cmp 1a and 59 % of Cmp 1a | 17 % of Cmp 1a and 46 % of Cmp 1a and 43 % of Cmp 1a | -11 % of Cmp 1a and 21 % of Cmp 1a and 0 % of Cmp 1a | -16 % of Cmp 1a and -2 % of Cmp 1a and 1 % of Cmp 1a | -14 % of Cmp 1a and -8 % of Cmp 1a and -4 % of Cmp 1a | -22 % of Cmp 1a and -11 % of Cmp 1a and -20 % of Cmp 1a | -5.33 % of Cmp 1a and -3.67 % of Cmp 1a and -16 % of Cmp 1a | -2 % of Carbachol and -10 % of Carbachol and 10 % of Carbachol | 158 |  |  |
| O=C(NCc1ccc(Cl)s1)c1ccnc(-n2cncn2)c1 [Compound 64, ClC1=CC=C(CNC(=O)C=2C=CN=C(C2)N3C=NC=N3)S1] |  |  |  |  |  |  |  |  |  |  |  |  |  |  |  |  | -4 % of Cmp 1a and -5 % of Cmp 1a and -0.942 % of Cmp 1a | 87.3464 % of Cmp 1a and 90.999 % of Cmp 1a and 82.6211 % of Cmp 1a |
